The results in this text go back to DBAASP.

Values after ≈ are worked out from the molar mass of the structure shown. Values joined by “and” are separate entries in the source; they are usually repeats but may differ in a detail not shown here. Equal values may be shown once.

Some test systems named below: Candida glabrata; Candida albicans; Candida tropicalis; Candida krusei ATCC 6258; Candida albicans SC5314; Candida parapsilosis; Escherichia coli AB94012; Acinetobacter baumannii; Enterococcus faecium; Streptococcus agalactiae; Pseudomonas aeruginosa; Bacillus subtilis; Escherichia coli HB101; Salmonella typhimurium.
Assay in all cases: ≥ marks a high value that may be exact or a test limit, other limits are often not marked, values filed in µg/mL are converted to µM
Experiment [1] has as its system Candida glabrata ATCC 15126.
The test system of experiment [2] is Candida tropicalis ATCC 13803.
Experiment [3] relates to Candida parapsilosis ATCC 22019.
For experiment [4], the system named is Escherichia coli ATCC 2592.
In experiment [5] the test system is Staphylococcus aureus ATCC 6538.
The subject of experiment [6] is Pseudomonas aeruginosa ATCC 9027.
Experiment [7] relates to Candida albicans ATCC 36232.
For experiment [8], the system named is Staphylococcus aureus 1550.
Experiment [9] deals with Micrococcus luteus ATCC 9341.
Experiment [10] has as its system Staphylococcus aureus P1381.
Experiment [11] has as its system Listeria monocytogenes KCTC 3710.
Experiment [12] relates to Pseudomonas aeruginosa 3592.
Experiment [13] concerns Staphylococcus epidermidis AB208187.
Experiment [14] relates to Bacillus cereus KCTC 1012.
Experiment [15] concerns Bacillus subtilis AB91021.
For experiment [16], the system named is Staphylococcus epidermidis AB208188.
Experiment [17] has as its system Pseudomonas aeruginosa AB93066.
Experiment [18] has as its system Salmonella enterica subsp. enterica serovar Typhimurium ATCC 14028.
In experiment [19] the test system is Acinetobacter baumannii ATCC 19606.
Experiment [20] concerns Micrococcus luteus AB93113.
In experiment [21] the test system is Pseudomonas aeruginosa 671973.
Experiment [22] concerns Staphylococcus aureus ATCC 29213.
Experiment [23] relates to Staphylococcus aureus AB94004.
For experiment [24], the system named is Staphylococcus aureus ATCC 25923.
For experiment [25], the system named is Pseudomonas aeruginosa 5018.
Experiment [26] has as its system Acinetobacter baumannii KCTC 2508.
The subject of experiment [27] is Staphylococcus aureus P1374.
The subject of experiment [28] is Klebsiella pneumoniae KCTC 2208.
The subject of experiment [29] is Pseudomonas aeruginosa 4007.
Experiment [30] deals with Staphylococcus aureus AB208193.
The subject of experiment [31] is Streptococcus sanguinis ATCC 10556.
Experiment [32] deals with Streptococcus mutans UA159.
The test system of experiment [33] is Streptococcus sobrinus ATCC 6715.

The term MIC denotes the smallest concentration in the dilution series that meets the test's criterion for growth inhibition.

For `CC(C)C[C@H](NC(=O)[C@H](CC(C)C)NC(=O)[C@H](Cc1ccc(O)cc1)NC(=O)[C@H](CCCCN)NC(=O)[C@@H](N)CS)C(=O)N[C@@H](CCCCN)C(=O)N[C@@H](Cc1c[nH]c2ccccc12)C(=O)N[C@@H](CCCN=C(N)N)C(=O)O` [CKYLLKWR], the minimum inhibitory concentration (MIC) is 22.5 µM (≈ 25 µg/mL) in experiment [1]; ≥ 45.1 µM in the experiment on Candida glabrata; 63.7 µM (≈ 70.7 µg/mL) in the experiment with Candida albicans; 11.3 µM (≈ 12.5 µg/mL) against Candida tropicalis; 22.5 µM (≈ 25 µg/mL) against Candida krusei ATCC 6258; 11.3 µM (≈ 12.5 µg/mL) in experiment [2]. Besides, the minimum inhibitory concentration (MIC) in the experiment with Candida albicans SC5314 is 22.5 µM (≈ 25 µg/mL); in the experiment on Candida parapsilosis, 31.9 µM (≈ 35.4 µg/mL); in [3], ≥ 45.1 µM.

With `CC(C)[C@H](NC(=O)[C@H](CCCCN)NC(=O)[C@H](CCCCN)NC(=O)[C@H](CCCCN)NC(=O)[C@H](CCCCN)NC(=O)[C@H](CCCCN)NC(=O)[C@@H](NC(=O)[C@@H](NC(=O)[C@@H](N)Cc1ccccc1)C(C)C)C(C)C)C(=O)N[C@@H](Cc1ccccc1)C(=O)O` [FVVKKKKKVF], the minimal inhibitory concentration (MIC) was ≥ 80 µM in [4]; > 80 µM in experiment [5]; > 80 µM in experiment [6]; ≥ 80 µM in [7]; ≥ 80 µM in experiment [8]; ≥ 80 µM in experiment [9].

Regarding `CC[C@H](C)[C@H](NC(=O)CN)C(=O)N[C@@H](CC(C)C)C(=O)NCC(=O)N[C@@H](CCCCN)C(=O)N[C@@H](CC(C)C)C(=O)N[C@@H](Cc1c[nH]c2ccccc12)C(=O)N[C@@H](CCC(=O)O)C(=O)NCC(=O)N[C@H](C(=O)N[C@@H](CCCCN)C(=O)N[C@@H](CO)C(=O)N[C@H](C(=O)N[C@@H](Cc1ccccc1)C(N)=O)[C@@H](C)CC)C(C)C` [GILGKLWEGVKSIF], the MIC in experiment [10] was determined as 8.08 µM (≈ 12.5 µg/mL); in experiment [11] it was 3.13 µM (≈ 4.84 µg/mL); in experiment [12], 6.25 µM (≈ 9.66 µg/mL); in experiment [13] it was 16.2 µM (≈ 25 µg/mL); in [14], 12.5 µM (≈ 19.3 µg/mL); in experiment [5], 8.08 µM (≈ 12.5 µg/mL). Moreover, the MIC is > 64.6 µM in experiment [6]; 8.08 µM (≈ 12.5 µg/mL) in experiment [15]; 16.2 µM (≈ 25 µg/mL) in [16]; ≥ 64.6 µM against Escherichia coli AB94012; 4.14 µM and 3.13 µM and 6.25 µM in the experiment with Acinetobacter baumannii; ≥ 64.6 µM in [17]. For the same compound, the MIC in [18] amounted to 3.13 µM (≈ 4.84 µg/mL); in the experiment on Enterococcus faecium, 8.08 µM (≈ 12.5 µg/mL); in experiment [19] it was 3.23 µM (≈ 5 µg/mL); in experiment [20] it was 8.08 µM (≈ 12.5 µg/mL); in experiment [21], 3.13 µM (≈ 4.84 µg/mL); against Streptococcus agalactiae it was 16.2 µM (≈ 25 µg/mL). The minimum inhibitory concentration (MIC) in experiment [22] is 6.25 µM (≈ 9.66 µg/mL); in [23] it was 8.08 µM (≈ 12.5 µg/mL); in experiment [24], 4.04 µM and 3.13 µM; in experiment [25] it was 12.5 µM (≈ 19.3 µg/mL); in experiment [26], 3.13 µM and 6.25 µM; in experiment [27], 16.2 µM (≈ 25 µg/mL). Further, the figures for the minimum inhibitory concentration (MIC) in [28], in experiment [29] and in experiment [30] were 12.5 µM (≈ 19.3 µg/mL), 25 µM (≈ 38.6 µg/mL) and 8.08 µM (≈ 12.5 µg/mL), respectively.

For `CC[C@H](C)[C@H](NC(=O)[C@@H](NC(=O)[C@@H]1CCCN1C(=O)[C@@H](NC(=O)[C@@H]1CCCN1C(=O)[C@H](CCCCN)NC(=O)[C@H](CCCCN)NC(=O)[C@H](CO)NC(=O)CN)C(C)C)[C@@H](C)CC)C(=O)N[C@@H](Cc1ccc(O)cc1)C(=O)N[C@H]1CSSC[C@@H](C(=O)N[C@@H](CCC(N)=O)C(=O)N[C@@H](CCCN=C(N)N)C(=O)N[C@@H](CCSC)C(=O)O)NC(=O)[C@H](CCCCN)NC(=O)CNC(=O)[C@H]([C@@H](C)O)NC(=O)[C@H](C)NC(=O)[C@H](C)NC(=O)[C@H](CCCN=C(N)N)NC(=O)[C@H](CCCN=C(N)N)NC(=O)[C@H](CC(N)=O)NC1=O` [GSKKPVPIIYCNRRAATGKCQRM], the minimum inhibitory concentration (MIC) is 7.35 µM (≈ 18.9 µg/mL) in the experiment with Pseudomonas aeruginosa, 20.8 µM (≈ 53.6 µg/mL) in the experiment with Bacillus subtilis, 2.6 µM (≈ 6.7 µg/mL) against Escherichia coli HB101 and 2.6 µM (≈ 6.7 µg/mL) against Salmonella typhimurium.

As to `CC(C)[C@H](NC(=O)[C@H](CCCCN)NC(=O)[C@H](CCCCN)NC(=O)[C@H](C)NC(=O)[C@H](CCCCN)NC(=O)[C@H](CCCCN)NC(=O)[C@H](Cc1ccccc1)NC(=O)[C@H](Cc1ccccc1)NC(=O)[C@H](CCCCN)NC(=O)[C@H](CCCCN)NC(=O)[C@H](Cc1c[nH]c2ccccc12)NC(=O)CN)C(=O)N[C@@H](Cc1c[nH]c2ccccc12)C(=O)N[C@@H](CCCCN)C(=O)O` [GWKKFFKKAKKVWK], the MIC in experiment [31] was ≥ 141 µM; in [32] it was ≥ 70.7 µM; in experiment [33], ≥ 141 µM.
